Species on record: Rattus norvegicus
Assay: DrugMatrix - Regimen: Daily Repeat
Format: toxicity, organism-based, Sprague-Dawley
Set-up: regimen Daily Repeat, gender Male, age 6-8 weeks
Conditions: in vivo, po, route oral GAVAGE, vehicle 100 % WATER; for ABSOLUTE BASOPHIL / ABSOLUTE EOSINOPHIL / ABSOLUTE LYMPHOCYTE / ABSOLUTE MONOCYTE / ABSOLUTE SEGMENTED NEUTROPHIL / BASOPHIL / EOSINOPHIL / ERYTHROCYTE COUNT / HEMATOCRIT / HEMOGLOBIN / LEUKOCYTE COUNT / LYMPHOCYTE / MEAN CORPUSCULAR HEMOGLOBIN / MEAN CORPUSCULAR HEMOGLOBIN CONCENTRATION / MEAN CORPUSCULAR VOLUME / MONOCYTE / NEUTROPHIL / NUCLEATED RED BLOOD CELLS / PLATELET COUNT: tissue Blood; for ALANINE AMINOTRANSFERASE / ALBUMIN / ALKALINE PHOSPHATASE / ASPARTATE AMINOTRANSFERASE / BLOOD UREA NITROGEN / CARBON DIOXIDE / CHLORIDE / CHOLESTEROL / CREATINE PHOSPHOKINASE / CREATININE / GLUCOSE / LACTATE DEHYDROGENASE / LIPASE / PHOSPHORUS / POTASSIUM / SODIUM / TOTAL BILIRUBIN / TOTAL PROTEIN / URIC ACID: tissue Plasma
[1] = 0 mg/kg, 72 h, dose level Control, time 3 day
[2] = 0 mg/kg, 120 h, dose level Control, time 5 day
[3] = 25 mg/kg, 72 h, dose level Low, time 3 day

Question: For `c1ccc([C@H]2CN3CCSC3=N2)cc1` [LEVAMISOLE], which “ABSOLUTE BASOPHIL” value [1] is on record?
Answer: 0 CELLS/uL

Question: And the “ABSOLUTE EOSINOPHIL” value [1]?
Answer: 20.17 CELLS/uL

Question: And the “ABSOLUTE LYMPHOCYTE” value [1]?
Answer: 12371.67 CELLS/uL

Question: What about the “ABSOLUTE MONOCYTE” value [1] of the same molecule?
Answer: 166 CELLS/uL

Question: What about the “ABSOLUTE SEGMENTED NEUTROPHIL” value [1] of the same molecule?
Answer: 1292.17 CELLS/uL

Question: And the BASOPHIL [1]?
Answer: 0%

Question: And the EOSINOPHIL [1]?
Answer: 0.17%

Question: What about the “ERYTHROCYTE COUNT” value [1] of the same molecule?
Answer: 5.46 x10E6/uL

Question: And the HEMATOCRIT [1]?
Answer: 34.38%

Question: And the HEMOGLOBIN [1]?
Answer: 13.32 G/DL

Question: And the “LEUKOCYTE COUNT” value [1]?
Answer: 13.85 x10E3/uL

Question: What about the LYMPHOCYTE [1] of the same molecule?
Answer: 88.5%

Question: And the “MEAN CORPUSCULAR HEMOGLOBIN” value [1]?
Answer: 24.42 pg

Question: What about the “MEAN CORPUSCULAR HEMOGLOBIN CONCENTRATION” value [1] of the same molecule?
Answer: 38.7 G/DL

Question: What about the “MEAN CORPUSCULAR VOLUME” value [1] of the same molecule?
Answer: 63.07 fL

Question: And the MONOCYTE [1]?
Answer: 1.17%

Question: And the NEUTROPHIL [1]?
Answer: 10.17%

Question: And the “NUCLEATED RED BLOOD CELLS” value [1]?
Answer: 0.17 /100WBC

Question: And the “PLATELET COUNT” value [1]?
Answer: 1193.5 x10E3/uL

Question: What about the “ALANINE AMINOTRANSFERASE” value [1] of the same molecule?
Answer: 54.5 u/L

Question: And the ALBUMIN [1]?
Answer: 4.02 G/DL

Question: And the “ALKALINE PHOSPHATASE” value [1]?
Answer: 346.5 u/L

Question: What about the “ASPARTATE AMINOTRANSFERASE” value [1] of the same molecule?
Answer: 103.17 u/L

Question: And the “BLOOD UREA NITROGEN” value [1]?
Answer: 16.5 mg/dL

Question: And the “CARBON DIOXIDE” value [1]?
Answer: 29.83 mmol/L

Question: What about the CHLORIDE [1] of the same molecule?
Answer: 99.5 MEQ/L

Question: And the CHOLESTEROL [1]?
Answer: 72.5 mg/dL

Question: What about the “CREATINE PHOSPHOKINASE” value [1] of the same molecule?
Answer: 532.5 u/L

Question: And the CREATININE [1]?
Answer: 0.18 mg/dL

Question: What about the GLUCOSE [1] of the same molecule?
Answer: 168.5 mg/dL

Question: And the “LACTATE DEHYDROGENASE” value [1]?
Answer: 536.5 u/L

Question: What about the LIPASE [1] of the same molecule?
Answer: 11.17 u/L

Question: What about the PHOSPHORUS [1] of the same molecule?
Answer: 11.48 mg/dL

Question: What about the POTASSIUM [1] of the same molecule?
Answer: 5.95 MEQ/L

Question: And the SODIUM [1]?
Answer: 140.5 MEQ/L

Question: And the “TOTAL BILIRUBIN” value [1]?
Answer: 0.18 mg/dL

Question: What about the “TOTAL PROTEIN” value [1] of the same molecule?
Answer: 5.77 G/DL

Question: What about the “URIC ACID” value [1] of the same molecule?
Answer: 1.42 mg/dL

Question: What about the “ABSOLUTE BASOPHIL” value [2] of the same molecule?
Answer: 0 CELLS/uL

Question: And the “ABSOLUTE EOSINOPHIL” value [2]?
Answer: 22.83 CELLS/uL

Question: What about the “ABSOLUTE LYMPHOCYTE” value [2] of the same molecule?
Answer: 12202.83 CELLS/uL

Question: And the “ABSOLUTE MONOCYTE” value [2]?
Answer: 158 CELLS/uL

Question: And the “ABSOLUTE SEGMENTED NEUTROPHIL” value [2]?
Answer: 1283 CELLS/uL

Question: And the BASOPHIL [2]?
Answer: 0%

Question: And the EOSINOPHIL [2]?
Answer: 0.17%

Question: And the “ERYTHROCYTE COUNT” value [2]?
Answer: 5.88 x10E6/uL

Question: And the HEMATOCRIT [2]?
Answer: 36.62%

Question: And the HEMOGLOBIN [2]?
Answer: 14.07 G/DL

Question: And the “LEUKOCYTE COUNT” value [2]?
Answer: 13.67 x10E3/uL

Question: And the LYMPHOCYTE [2]?
Answer: 89.5%

Question: What about the “MEAN CORPUSCULAR HEMOGLOBIN” value [2] of the same molecule?
Answer: 23.95 pg

Question: And the “MEAN CORPUSCULAR HEMOGLOBIN CONCENTRATION” value [2]?
Answer: 38.43 G/DL

Question: What about the “MEAN CORPUSCULAR VOLUME” value [2] of the same molecule?
Answer: 62.28 fL

Question: What about the MONOCYTE [2] of the same molecule?
Answer: 1.17%

Question: What about the NEUTROPHIL [2] of the same molecule?
Answer: 9.17%

Question: What about the “NUCLEATED RED BLOOD CELLS” value [2] of the same molecule?
Answer: 0.17 /100WBC

Question: And the “PLATELET COUNT” value [2]?
Answer: 1198 x10E3/uL

Question: And the “ALANINE AMINOTRANSFERASE” value [2]?
Answer: 51 u/L

Question: What about the ALBUMIN [2] of the same molecule?
Answer: 4.3 G/DL

Question: What about the “ALKALINE PHOSPHATASE” value [2] of the same molecule?
Answer: 343 u/L

Question: What about the “ASPARTATE AMINOTRANSFERASE” value [2] of the same molecule?
Answer: 89.83 u/L

Question: And the “BLOOD UREA NITROGEN” value [2]?
Answer: 17.67 mg/dL

Question: What about the “CARBON DIOXIDE” value [2] of the same molecule?
Answer: 27.17 mmol/L

Question: And the CHLORIDE [2]?
Answer: 98.33 MEQ/L

Question: And the CHOLESTEROL [2]?
Answer: 82.5 mg/dL

Question: And the “CREATINE PHOSPHOKINASE” value [2]?
Answer: 533.33 u/L

Question: What about the CREATININE [2] of the same molecule?
Answer: 0.18 mg/dL

Question: And the GLUCOSE [2]?
Answer: 152.67 mg/dL

Question: What about the “LACTATE DEHYDROGENASE” value [2] of the same molecule?
Answer: 220.33 u/L

Question: What about the LIPASE [2] of the same molecule?
Answer: 11.5 u/L

Question: And the PHOSPHORUS [2]?
Answer: 11.25 mg/dL

Question: What about the POTASSIUM [2] of the same molecule?
Answer: 6.29 MEQ/L

Question: And the SODIUM [2]?
Answer: 140.53 MEQ/L

Question: What about the “TOTAL BILIRUBIN” value [2] of the same molecule?
Answer: 0.22 mg/dL

Question: And the “TOTAL PROTEIN” value [2]?
Answer: 6.12 G/DL

Question: And the “URIC ACID” value [2]?
Answer: 1.42 mg/dL

Question: What about the “ABSOLUTE BASOPHIL” value [3] of the same molecule?
Answer: 0 CELLS/uL

Question: What about the “ABSOLUTE EOSINOPHIL” value [3] of the same molecule?
Answer: 0 CELLS/uL

Question: And the “ABSOLUTE LYMPHOCYTE” value [3]?
Answer: 9283.33 CELLS/uL

Question: What about the “ABSOLUTE MONOCYTE” value [3] of the same molecule?
Answer: 29.33 CELLS/uL

Question: What about the “ABSOLUTE SEGMENTED NEUTROPHIL” value [3] of the same molecule?
Answer: 1254 CELLS/uL

Question: What about the BASOPHIL [3] of the same molecule?
Answer: 0%

Question: And the EOSINOPHIL [3]?
Answer: 0%

Question: And the “ERYTHROCYTE COUNT” value [3]?
Answer: 5.36 x10E6/uL

Question: What about the HEMATOCRIT [3] of the same molecule?
Answer: 32.73%

Question: What about the HEMOGLOBIN [3] of the same molecule?
Answer: 13 G/DL

Question: And the “LEUKOCYTE COUNT” value [3]?
Answer: 10.57 x10E3/uL

Question: And the LYMPHOCYTE [3]?
Answer: 87.67%

Question: And the “MEAN CORPUSCULAR HEMOGLOBIN” value [3]?
Answer: 24.3 pg

Question: And the “MEAN CORPUSCULAR HEMOGLOBIN CONCENTRATION” value [3]?
Answer: 39.73 G/DL

Question: What about the “MEAN CORPUSCULAR VOLUME” value [3] of the same molecule?
Answer: 61.17 fL

Question: What about the MONOCYTE [3] of the same molecule?
Answer: 0.33%

Question: And the NEUTROPHIL [3]?
Answer: 12%

Question: And the “NUCLEATED RED BLOOD CELLS” value [3]?
Answer: 0 /100WBC

Question: And the “PLATELET COUNT” value [3]?
Answer: 1056.33 x10E3/uL

Question: What about the “ALANINE AMINOTRANSFERASE” value [3] of the same molecule?
Answer: 64.33 u/L

Question: What about the ALBUMIN [3] of the same molecule?
Answer: 3.87 G/DL

Question: What about the “ALKALINE PHOSPHATASE” value [3] of the same molecule?
Answer: 326.33 u/L

Question: And the “ASPARTATE AMINOTRANSFERASE” value [3]?
Answer: 98.67 u/L

Question: And the “BLOOD UREA NITROGEN” value [3]?
Answer: 14.33 mg/dL

Question: What about the “CARBON DIOXIDE” value [3] of the same molecule?
Answer: 30 mmol/L

Question: And the CHLORIDE [3]?
Answer: 99 MEQ/L

Question: What about the CHOLESTEROL [3] of the same molecule?
Answer: 78.33 mg/dL

Question: What about the “CREATINE PHOSPHOKINASE” value [3] of the same molecule?
Answer: 446 u/L

Question: What about the CREATININE [3] of the same molecule?
Answer: 0.19 mg/dL

Question: And the GLUCOSE [3]?
Answer: 155 mg/dL

Question: What about the “LACTATE DEHYDROGENASE” value [3] of the same molecule?
Answer: 214 u/L

Question: And the LIPASE [3]?
Answer: 10.67 u/L

Question: What about the PHOSPHORUS [3] of the same molecule?
Answer: 11.53 mg/dL

Question: And the POTASSIUM [3]?
Answer: 5.92 MEQ/L

Question: And the SODIUM [3]?
Answer: 142 MEQ/L

Question: What about the “TOTAL BILIRUBIN” value [3] of the same molecule?
Answer: 0.17 mg/dL

Question: And the “TOTAL PROTEIN” value [3]?
Answer: 5.57 G/DL

From ChEMBL document CHEMBL3885881, “DrugMatrix”
